According to patent publication US20240247080A1, “GLP1/GIP/NPY2 RECEPTOR TRIPLE AGONISTS” (Boehringer Ingelheim International GmbH, priority 2022, published 2024):
Where two headings read alike, the source gives them in different places. Starred links: 1 amine or outer side, 2 acyl side, 3 side chain; linkers in the order of their positions; H or OH if unused. Positions of bridges follow the written chain, without caps; N, C: chain ends. Non-standard residues stand in square brackets, D forms with d. Groups on a side chain read outwards from the residue. Chains are numbered I, II in the order given. No end group written: not given here. *: point of attachment. C20 diacid = O=C(O)CCCCCCCCCCCCCCCCCCC(=O)*; C18 diacid = O=C(O)CCCCCCCCCCCCCCCCC(=O)*; γGlu = O=C(O)[C@H](CCC(=O)[*:2])N[*:1]; εLys = N[C@@H](CCCCN[*:1])C(=O)[*:2]; AEEA = NCCOCCOCC(=O)O; Aib = CC(C)(N)C(=O)O; Ahx = NCCCCCC(=O)O

What was measured:
hGLP1R = molecular target: T1, hGLP1R (Homo sapiens, UniProt P43220); assay: hGLP1R CreLuc reporter gene assay in 0.5% and 100% plasma; assay type: cell-based; settings: CreLuc reporter gene assay
T1 construct: expressed in transfected cells; host or cells: HEK-293 cells carrying a CRE-luciferase reporter gene
T1 sequence (P43220 24-463): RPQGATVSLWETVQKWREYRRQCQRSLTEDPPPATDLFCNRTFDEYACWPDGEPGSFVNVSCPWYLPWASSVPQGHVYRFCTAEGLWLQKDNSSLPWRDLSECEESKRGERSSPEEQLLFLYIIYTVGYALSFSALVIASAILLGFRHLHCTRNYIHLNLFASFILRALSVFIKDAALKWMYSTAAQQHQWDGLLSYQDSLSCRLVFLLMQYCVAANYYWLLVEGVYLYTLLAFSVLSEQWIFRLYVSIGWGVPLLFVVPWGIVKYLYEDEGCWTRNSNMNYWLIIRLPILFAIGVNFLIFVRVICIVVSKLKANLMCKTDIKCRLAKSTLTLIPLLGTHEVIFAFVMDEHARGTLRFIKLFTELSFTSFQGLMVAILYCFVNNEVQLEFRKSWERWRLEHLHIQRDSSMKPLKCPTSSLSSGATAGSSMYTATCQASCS
From the text: (§1) Example 1: hGLPR/hGIPR/hNPY2R CreLuc Assay in 0.5% and 100% Plasma
(§2) CHO and HEK-293 recombinant cell lines express a luciferase reporter gene under control of the cAMP responsive element (CRE). As a second recombinant protein the GLP-1 and NPY2 receptors were expressed in the reporter gene HEK cells, and the GIP receptor was expressed in the reporter gene CHO cells, respectively. Stimulation of these recombinant cells with an agonist leads to an increase of intracellular cAMP levels. In the presence of cAMP, the transcription factor CRE binding protein (CREB) binds to the CRE and to the CREB binding protein (CBP), which leads to transcription of the luciferase reporter gene. Peptides upon serial-dilution in 100% DMSO were transferred into 384-well assay plates with 5 μl pre-dispensed assay buffer (1×HBSS, 20 mM HEPES, pH7.4 supplemented with 0.5% human plasma) using acoustic dispensing on a Labcyte ECHO. Cryo-preserved transgenic reporter gene cells were thawed in assay buffer. 20 μl (10.000 cells/well) were added to the plate with the peptides and incubated for 4 hours at 37° C. in a humidified incubator. Following incubation, assay plates are equilibrated to room temperature, followed by addition of 25 μl of Bright-GIo™ Luciferase reagent, incubation at room temperature for 10 minutes and analysis of luminescence (Envision Reader). Concentration response evaluation of compounds was performed with 8 concentrations of peptides (covering four decades). EC50 values were calculated by non-linear regression using sigmoid concentration-response with variable slope. The same assays were run in the presence of 100% plasma with no additional buffer constituents.

hGIPR = molecular target: T2, hGIPR (Homo sapiens, UniProt P48546); assay: hGIPR CreLuc reporter gene assay in 0.5% and 100% plasma; assay type: cell-based; settings: CreLuc reporter gene assay
T2 construct: expressed in transfected cells; host or cells: CHO cells carrying a CRE-luciferase reporter gene
T2 sequence (P48546 22-466): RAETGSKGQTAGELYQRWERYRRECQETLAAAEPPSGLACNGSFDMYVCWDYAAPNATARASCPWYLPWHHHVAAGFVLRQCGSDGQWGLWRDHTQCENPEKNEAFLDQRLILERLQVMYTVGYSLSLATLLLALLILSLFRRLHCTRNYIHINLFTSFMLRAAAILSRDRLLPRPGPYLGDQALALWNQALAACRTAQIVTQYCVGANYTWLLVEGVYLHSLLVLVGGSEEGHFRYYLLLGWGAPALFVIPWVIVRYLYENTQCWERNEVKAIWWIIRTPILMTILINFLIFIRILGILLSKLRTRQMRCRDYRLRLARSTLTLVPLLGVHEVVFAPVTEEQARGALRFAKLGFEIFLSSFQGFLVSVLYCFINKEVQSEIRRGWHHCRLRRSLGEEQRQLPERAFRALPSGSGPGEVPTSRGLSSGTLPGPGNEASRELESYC
From the text: as §1, §2

[1] = 0.5% human plasma, read-out: hGLP1R 0.5% hP
[2] = 0.5% human plasma, read-out: hGIPR 0.5% hP
[3] = 100% human plasma, read-out: hGIPR 100% hP
[4] = 100% human plasma, read-out: hGLP1R 100% hP

Substance | EC50 (hGLP1R; [1]) | EC50 (hGIPR; [2]) | EC50 (hGIPR; [3]) | also measured
I: H-Y[Aib]EGTFTSDYSI[Aib]LEKQAQ[Aib]AFVQWLIKGGPEEGASLRHYYNWLTRQRY-NH2 / II: {C18 diacid}-EEEEEE[εLys] (amide I:28-II:C) [Compound 196, Y-Aib-E-G-T-F-T-S-D-Y-S-I-Aib-L-E-K-Q-A-Q-Aib-A-F-V-Q-W-L-I-K(1,3)-GGPEEGASLRHYYNWLTRQRY-NH2.C18DA-E-E-E-E-E-E-eLys(1,2)] | 0.2 nM | 0.25 nM |  | 
H-Y[Aib]EGTFTSDYSI[Aib]LEKQAQ[Aib]AFVQWLIK([AEEA-AEEA-γGlu-γGlu-γGlu-γGlu-C18 diacid])GGPEEPASLRHYYNWLTRQRY-NH2 [Compound 57, Y-Aib-E-G-T-F-T-S-D-Y-S-I-Aib-L-E-K-Q-A-Q-Aib-A-F-V-Q-W-L-I-K(1,3)-GGPEEPASLRHYYNWLTRQRY-NH2.C18DA-gGlu-gGlu-gGlu-gGlu-OEG-OEG(1,2)] | 0.14 nM | 0.18 nM | 1.17 nM | 
H-Y[Aib]EGTFTSDYSI[Aib]LEKQAQ[Aib]AFVEWLIK([εLys-γGlu-γGlu-γGlu-γGlu-γGlu-γGlu-C20 diacid])GGPSSGAS[Aib]RHY[Aib]NR[Aib]TRQRY-NH2 [Compound 4, Y-Aib-E-G-T-F-T-S-D-Y-S-I-Aib-L-E-K-Q-A-Q-Aib-A-F-V-E-W-L-I-K(1,3)-G-G-P-S-S-G-A-S-Aib-R-H-Y-Aib-N-R-Aib-T-R-Q-R-Y-NH2.C20DA-gGlu-gGlu-gGlu-gGlu-gGlu-gGlu-eLys(1,2)] | 0.09 nM | 0.25 nM | 1.66 nM | 
H-Y[Aib]EGTFTSDYSI[Aib]LEKQAQ[Aib]EFVEWLIK([Ahx-γGlu-γGlu-γGlu-γGlu-γGlu-γGlu-C18 diacid])GGPSEGASLRHYYNWLTRQRY-NH2 [Compound 279, Y-Aib-E-G-T-F-T-S-D-Y-S-I-Aib-L-E-K-Q-A-Q-Aib-E-F-V-E-W-L-I-K(1,3)-GGPSEGASLRHYYNWLTRQRY-NH2.C18DA-gGlu-gGlu-gGlu-gGlu-gGlu-gGlu-AHX(1,2)] |  | 0.71 nM |  | 
H-Y[Aib]EGTFTSDYSI[Aib]LEEQAQ[Aib]AFVQWLIK([εLys-γGlu-γGlu-γGlu-γGlu-γGlu-C20 diacid])GGPSSGASLRHYYNWLTRQRY-NH2 [Compound 34, Y-Aib-E-G-T-F-T-S-D-Y-S-I-Aib-L-E-E-Q-A-Q-Aib-A-F-V-Q-W-L-I-K(1,3)-GGPSSGASLRHYYNWLTRQRY-NH2.C20DA-gGlu-gGlu-gGlu-gGlu-gGlu-eLys(1,2)] | 0.09 nM | 0.13 nM | 1.61 nM | EC50 (hGLP1R; [4]): 1.39 nM
H-Y[Aib]EGTFTSDYSI[Aib]LEDQAQ[Aib]AFVEWLIK([εLys-γGlu-γGlu-γGlu-γGlu-γGlu-γGlu-C20 diacid])GGPSSGASLRHYYNWLTRQRY-NH2 [Compound 90, Y-Aib-E-G-T-F-T-S-D-Y-S-I-Aib-L-E-D-Q-A-Q-Aib-A-F-V-E-W-L-I-K(1,3)-GGPSSGASLRHYYNWLTRQRY-NH2.C20DA-gGlu-gGlu-gGlu-gGlu-gGlu-gGlu-eLys(1,2)] | 0.3 nM | 1.03 nM |  | 
I: H-Y[Aib]EGTFTSDYSI[Aib]LEKQAQ[Aib]AFVEWLIKGGPSEGASLRHYYNWLTRQRY-NH2 / II: {C18 diacid}-EEEEEE (amide I:28-II:C) [Compound 302, Y-Aib-E-G-T-F-T-S-D-Y-S-I-Aib-L-E-K-Q-A-Q-Aib-A-F-V-E-W-L-I-K(1,3)-GGPSEGASLRHYYNWLTRQRY-NH2.C18DA-E-E-E-E-E-E(1,2)] | 0.15 nM | 0.33 nM |  | 
H-Y[Aib]EGTFTSDYSI[Aib]LEKQAQ[Aib]AFVEYLIK([εLys-γGlu-γGlu-γGlu-γGlu-γGlu-γGlu-C20 diacid])GGPSSGASLRHYYNWLTRQRY-NH2 [Compound 135, Y-Aib-E-G-T-F-T-S-D-Y-S-I-Aib-L-E-K-Q-A-Q-Aib-A-F-V-E-Y-L-I-K(1,3)-GGPSSGASLRHYYNWLTRQRY-NH2.C20DA-gGlu-gGlu-gGlu-gGlu-gGlu-gGlu-eLys(1,2)] | 0.24 nM | 0.11 nM | 1.07 nM | 
H-Y[Aib]EGTFTSDLSI[Aib]LEKQAQ[Aib]AFVEWLIK([εLys-γGlu-γGlu-γGlu-γGlu-γGlu-γGlu-C20 diacid])GGPSSGASLRHYYNWLTRQRY-NH2 [Compound 172, Y-Aib-E-G-T-F-T-S-D-L-S-I-Aib-L-E-K-Q-A-Q-Aib-A-F-V-E-W-L-I-K(1,3)-GGPSSGASLRHYYNWLTRQRY-NH2.C20DA-gGlu-gGlu-gGlu-gGlu-gGlu-gGlu-eLys(1,2)] |  |  |  | EC50 (hGLP1R; hGLP1R 0.5% hP, 0.5% human plasma): 0.07 nM; EC50 (hGLP1R; hGLP1R 100% hP, 100% human plasma): 2 nM; EC50 (hGIPR; hGIPR 0.5% hP, 0.5% human plasma): 0.21 nM; EC50 (hGIPR; hGIPR 100% hP, 100% human plasma): 1.83 nM
H-Y[Aib]EGTFTSDYSI[Aib]LEKQAQ[Aib]AFVEWLIK([εLys-γGlu-γGlu-γGlu-γGlu-γGlu-γGlu-C20 diacid])GGQSSGASLRHYYNWLTRQRY-NH2 [Compound 123, Y-Aib-E-G-T-F-T-S-D-Y-S-I-Aib-L-E-K-Q-A-Q-Aib-A-F-V-E-W-L-I-K(1,3)-GGQSSGASLRHYYNWLTRQRY-NH2.C20DA-gGlu-gGlu-gGlu-gGlu-gGlu-gGlu-eLys(1,2)] | 0.24 nM | 0.42 nM |  | 
H-Y[Aib]EGTFTSDYSI[Aib]LEKQAQ[Aib]AFVQWLIK([εLys-γGlu-γGlu-γGlu-γGlu-γGlu-C20 diacid])GGPESGASLRHYYNWLTRQRY-NH2 [Compound 61, Y-Aib-E-G-T-F-T-S-D-Y-S-I-Aib-L-E-K-Q-A-Q-Aib-A-F-V-Q-W-L-I-K(1,3)-GGPESGASLRHYYNWLTRQRY-NH2.C20DA-gGlu-gGlu-gGlu-gGlu-gGlu-eLys(1,2)] | 0.11 nM | 0.36 nM | 0.56 nM | EC50 (hGLP1R; [4]): 3.95 nM
H-Y[Aib]EGTFTSDYSI[Aib]LEKQAE[Aib]AFVEWLIK([γGlu-γGlu-γGlu-γGlu-C20 diacid])GGPSEGASLRHYYNWLTRQRY-NH2 [Compound 280, Y-Aib-E-G-T-F-T-S-D-Y-S-I-Aib-L-E-K-Q-A-E-Aib-A-F-V-E-W-L-I-K(1,3)-GGPSEGASLRHYYNWLTRQRY-NH2.C20DA-gGlu-gGlu-gGlu-gGlu(1,2)] | 0.44 nM | 0.38 nM |  | 
Y[Aib]EGTFTSDYSI[Aib]LEKQAQ[Aib]EFVQWLIK([AEEA-AEEA-γGlu-γGlu-γGlu-C18 diacid])GGPSEGASLRHYYNWLTRQRY-NH2 [Compound 160, Y-Aib-E-G-T-F-T-S-D-Y-S-I-Aib-L-E-K-Q-A-Q-Aib-E-F-V-Q-W-L-I-K(1,3)-GGPSEGASLRHYYNWLTRQRY-NH2.C18DA-gGlu-gGlu-gGlu-OEG-OEG(1,2)] | 0.3 nM | 0.33 nM | 0.91 nM | 
H-Y[Aib]EGTFTSDYSI[Aib]LEKQAQ[Aib]AFVEWLIK([AEEA-γGlu-γGlu-γGlu-C18 diacid])GGPSEGASLRHYYNWLTRQRY-NH2 [Compound 300, Y-Aib-E-G-T-F-T-S-D-Y-S-I-Aib-L-E-K-Q-A-Q-Aib-A-F-V-E-W-L-I-K(1,3)-GGPSEGASLRHYYNWLTRQRY-NH2.C18DA-gGlu-gGlu-gGlu-OEG(1,2)] | 0.11 nM | 0.16 nM | 1.81 nM | 
H-Y[Aib]EGTFTSDYSI[Aib]LE[Aib]QAQ[Aib]AFVEWLIK([εLys-γGlu-γGlu-γGlu-γGlu-γGlu-γGlu-C20 diacid])GGPSSGASLRHYYNWLTRQRY-NH2 [Compound 199, Y-Aib-E-G-T-F-T-S-D-Y-S-I-Aib-L-E-Aib-Q-A-Q-Aib-A-F-V-E-W-L-I-K(1,3)-GGPSSGASLRHYYNWLTRQRY-NH2.C20DA-gGlu-gGlu-gGlu-glu-gGlu-gGlu-eLys(1,2)] |  | 0.94 nM |  | 
H-Y[Aib]EGTFTSDYSI[Aib]LEKQAQ[Aib]EFVEWLIK([γGlu-γGlu-γGlu-γGlu-C20 diacid])GGPSEGASLRHYYNWLTRQRY-NH2 [Compound 271, Y-Aib-E-G-T-F-T-S-D-Y-S-I-Aib-L-E-K-Q-A-Q-Aib-E-F-V-E-W-L-I-K(1,3)-GGPSEGASLRHYYNWLTRQRY-NH2.C20DA-gGlu-gGlu-gGlu-gGlu(1,2)] |  | 0.62 nM | 2.62 nM | 
